Results as given in patent publication US20260356856A1, “KRAS G12S AND G12C INHIBITORS” (MIRATI THERAPEUTICS, INC., priority 2023, published 2026).

Key:
[1] = target: T1, KRas-mediated phosphorylation of ERK in A549 cells (Homo sapiens, UniProt P01116, G12S); test: Inhibition of KRas-mediated phosphorylation of ERK (HTRF), A549 cells; assay type: cell-based; settings: HTRF pERK, 3 h incubation
T1 construct: pERK HTRF read-out

[2] = target: T2, KRas WT (Homo sapiens, UniProt P01116); test: KRas binding assay, TR-FRET displacement of Cy5 labelled tracer; settings: 60-minute incubation at room temperature, 1% DMSO, pH 7.5
T2 construct: Biotinylated KRas (corresponding to amino acids 1-169, produced at Accelegan Inc.); biotin (biotinylated); purchased Accelegan Inc
T2 sequence (P01116 1-169 isoform P01116-2): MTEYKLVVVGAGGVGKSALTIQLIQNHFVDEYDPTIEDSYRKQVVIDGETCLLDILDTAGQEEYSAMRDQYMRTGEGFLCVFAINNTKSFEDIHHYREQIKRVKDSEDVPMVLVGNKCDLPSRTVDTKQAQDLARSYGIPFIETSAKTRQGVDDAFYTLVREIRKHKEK
How it was run: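 Truncated KRas (1-169), biotinylated, Tb-streptavidin donor; one-hour room-temperature incubation; IC50 by four-parameter curve fitting.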

[3] = target: T3, KRas G12C (Homo sapiens, UniProt P01116, G12C); test: as above; settings: 60-minute incubation at room temperature, 1% DMSO, pH 7.5
T3 construct: Biotinylated KRas (corresponding to amino acids 1-169, produced at Accelegan Inc.); biotin (biotinylated); purchased Accelegan Inc
T3 sequence (P01116 1-169 isoform P01116-2 G12C): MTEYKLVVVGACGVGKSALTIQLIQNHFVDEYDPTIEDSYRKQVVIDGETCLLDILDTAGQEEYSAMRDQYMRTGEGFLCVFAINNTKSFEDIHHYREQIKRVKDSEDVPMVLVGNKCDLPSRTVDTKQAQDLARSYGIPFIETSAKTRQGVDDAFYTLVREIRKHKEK
How it was run: (§1)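 Room-temperature incubation (60 min) of compound with biotinylated KRas 1-169, tracer and Tb-streptavidin preceded the TR-FRET read. Final DMSO was 1%; buffer pH 7.5. Percent-of-control values went into a 4-parameter equation to give IC50.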

[4] = target: T4, KRas G12S (Homo sapiens, UniProt P01116, G12S); test: as above; settings: 60-minute incubation at room temperature, 1% DMSO, pH 7.5
T4 construct: Biotinylated KRas (corresponding to amino acids 1-169, produced at Accelegan Inc.); biotin (biotinylated); purchased Accelegan Inc
T4 sequence (P01116 1-169 isoform P01116-2 G12S): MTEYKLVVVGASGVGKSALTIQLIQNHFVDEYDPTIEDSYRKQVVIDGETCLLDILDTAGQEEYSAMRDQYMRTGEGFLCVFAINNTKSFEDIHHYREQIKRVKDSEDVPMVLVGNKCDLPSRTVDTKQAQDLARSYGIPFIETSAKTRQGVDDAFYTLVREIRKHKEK
How it was run: as §1

[5] = target: T5, KRas-mediated phosphorylation of ERK in H358 cells (Homo sapiens, UniProt P01116, G12C); test: Inhibition of KRas-mediated phosphorylation of ERK (HTRF), H358 cells; assay type: cell-based; settings: HTRF pERK, 3 h incubation
T5 construct: pERK HTRF read-out
T5 sequence (P01116 1-188 isoform P01116-2 G12C): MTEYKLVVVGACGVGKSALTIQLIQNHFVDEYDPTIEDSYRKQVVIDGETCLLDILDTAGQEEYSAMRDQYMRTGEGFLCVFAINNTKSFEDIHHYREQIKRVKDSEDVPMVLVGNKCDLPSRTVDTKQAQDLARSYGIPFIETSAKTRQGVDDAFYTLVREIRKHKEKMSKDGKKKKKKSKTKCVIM

[6] = target: T6, KRas-mediated phosphorylation of ERK in MKN1 cells (Homo sapiens, UniProt P01116); test: Inhibition of KRas-mediated phosphorylation of ERK (HTRF), MKN1 cells; assay type: cell-based; settings: MKN1 cells (KRas WT); HTRF pERK; 3 h incubation
T6 construct: pERK HTRF read-out
T6 sequence (P01116 1-188 isoform P01116-2): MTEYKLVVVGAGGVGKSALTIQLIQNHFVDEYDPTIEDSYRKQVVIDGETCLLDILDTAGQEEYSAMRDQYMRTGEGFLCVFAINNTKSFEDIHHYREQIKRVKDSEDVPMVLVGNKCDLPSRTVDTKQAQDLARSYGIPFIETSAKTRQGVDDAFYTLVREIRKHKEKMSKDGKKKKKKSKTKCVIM
Experimental: Inhibition of KRas Phosphorylation of ERK (HTRF) by Exemplary Compounds of Formula (Ia) or (Ib)
Cisbio HTRF Advanced pERK Assay Catalog #64AERPEH • Cells: MKN1, PSN1 • Procedure: • 1. Day 1: Seed 6,000 cells/well −25 μl/well in 384-well white solid bottom plate; RPM1_10% FBS. Incubate overnight at 37 °C/5% CO2. • 2.

T1 sequence (P01116 1-188 isoform P01116-2 G12S): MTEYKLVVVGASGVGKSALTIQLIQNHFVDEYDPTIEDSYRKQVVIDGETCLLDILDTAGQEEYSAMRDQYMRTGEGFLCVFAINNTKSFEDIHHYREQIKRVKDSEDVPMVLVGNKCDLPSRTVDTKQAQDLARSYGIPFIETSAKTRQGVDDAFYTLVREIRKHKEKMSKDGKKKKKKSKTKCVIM

| SMILES | IC50 [1] [nM] | IC50 [2] [nM] | IC50 [3] [nM] | IC50 [4] [nM] | IC50 [5] [nM] | IC50 [6] [nM] |
| --- | --- | --- | --- | --- | --- | --- |
| CCc1c(F)ccc2cc(O)cc(-c3ncc4c(N5CCCC(C(=O)n6ccc(C)n6)C5)nc(OC[C@@]56CCCN5C[C@H](F)C6)nc4c3F)c12 (stereo partly drawn) [Example 65, (1-(7-(8-ethyl-7-fluoro-3-hydroxynaphthalen-1-yl)-8-fluoro-2-(((2R,7aS)-2-fluorotetrahydro-1H-pyrrolizin-7a(5H)-yl)methoxy)pyrido[4,3-d]pyrimidin-4-yl)piperidin-3-yl)(3-methyl-1H-pyrazol-1-yl)methanone] | > 10000 | 17 | 28 | 14 | 415 | 266 |
| CCc1c(F)ccc2cc(O)cc(-c3ncc4c(N(C)CCN(C)C(=O)n5ccnn5)nc(OC[C@@]56CCCN5C[C@H](F)C6)nc4c3F)c12 (single isomer, unassigned) [Example 208] | 3980 | 171 | 4 | 74 | 4 | 854 |
| CCc1c(F)ccc2cc(O)cc(-c3ncc4c(N5CCC(C(=O)N(C)S(C)(=O)=O)CC5)nc(OC[C@@]56CCCN5C[C@H](F)C6)nc4c3F)c12 [Example 257, 1-(7-(8-ethyl-7-fluoro-3-hydroxynaphthalen-1-yl)-8-fluoro-2-(((2R,7aS)-2-fluorotetrahydro-1H-pyrrolizin-7a(5H)-yl)methoxy)pyrido[4,3-d]pyrimidin-4-yl)-N-methyl-N-(methylsulfonyl)piperidine-4-carboxamide] | 677 | 214 | 5 | 499 | 21 | 726 |
| Cc1ccn(C(=O)CCCNc2cc(O[C@@H](C)[C@@H]3CCCN3C)nc(-c3noc([C@]4(C)CCCc5sc(N)c(C#N)c54)n3)n2)n1 [Example 324, (R)-2-amino-4-methyl-4-(3-(4-((4-(3-methyl-1H-pyrazol-1-yl)-4-oxobutyl)amino)-6-((S)-1-((S)-1-methylpyrrolidin-2-yl)ethoxy)pyrimidin-2-yl)-1,2,4-oxadiazol-5-yl)-4,5,6,7-tetrahydrobenzo[b]thiophene-3-carbonitrile] | 9 | 19 | < 2 | < 2 | 262 | 651 |
| CCc1c(F)ccc2cc(O)cc(-c3ncc4c(N5CCC(C(=O)n6ccc(C(C)C)n6)CC5)nc(OC[C@@]56CCCN5C[C@H](F)C6)nc4c3F)c12 [Example 76, (1-(7-(8-ethyl-7-fluoro-3-hydroxynaphthalen-1-yl)-8-fluoro-2-(((2R,7aS)-2-fluorotetrahydro-1H-pyrrolizin-7a(5H)-yl)methoxy)pyrido[4,3-d]pyrimidin-4-yl)piperidin-4-yl)(3-isopropyl-1H-pyrazol-1-yl)methanone] | 223 | 166 | 124 | 150 | 4720 | 2060 |
| CCc1c(F)ccc2cc(O)cc(-c3ncc4c(N5C[C@H]6C[C@@H](C(=O)n7ccc(C)n7)[C@H]6C5)nc(OC[C@@]56CCCN5C[C@H](F)C6)nc4c3F)c12 [Example 210, ((1S,5S,6R)-3-(7-(8-ethyl-7-fluoro-3-hydroxynaphthalen-1-yl)-8-fluoro-2-(((2R,7aS)-2-fluorotetrahydro-1H-pyrrolizin-7a(5H)-yl)methoxy)pyrido[4,3-d]pyrimidin-4-yl)-3-azabicyclo[3.2.0]heptan-6-yl)(3-methyl-1H-pyrazol-1-yl)methanone] | 741 | 2730 | 2250 | 1290 | 8660 | 5020 |
| CCc1c(F)ccc2cc(O)cc(-c3ncc4c(N5CCC(C(=O)OC)CC5)nc(OC[C@@]56CCCN5C[C@H](F)C6)nc4c3F)c12 [Example 16, methyl 1-(7-(8-ethyl-7-fluoro-3-hydroxynaphthalen-1-yl)-8-fluoro-2-(((2R,7aS)-2-fluorotetrahydro-1H-pyrrolizin-7a(5H)-yl)methoxy)pyrido[4,3-d]pyrimidin-4-yl)piperidine-4-carboxylate] | 337 | 23 | 54 | 44 | 428 | 70 |
| CCc1c(F)ccc2cc(O)cc(-c3ncc4c(N5CC[C@H]6[C@@H](C5)[C@H]6C(=O)N(C)C(C)=O)nc(OC[C@@]56CCCN5C[C@H](F)C6)nc4c3F)c12 [Example 278, (1R,6S)-N-acetyl-3-(7-(8-ethyl-7-fluoro-3-hydroxynaphthalen-1-yl)-8-fluoro-2-(((2R,7aS)-2-fluorotetrahydro-1H-pyrrolizin-7a(5H)-yl)methoxy)pyrido[4,3-d]pyrimidin-4-yl)-N-methyl-3-azabicyclo[4.1.0]heptane-7-carboxamide] | 292 | 41 | 58 | 48 | 1180 | 217 |

Continued, values first:

| IC50 [1] [nM] | IC50 [2] [nM] | IC50 [3] [nM] | IC50 [4] [nM] | IC50 [5] [nM] | IC50 [6] [nM] | SMILES |
| --- | --- | --- | --- | --- | --- | --- |
| 15 | 17 | 10 | 9 | 71 | 111 | Cc1ccn(C(=O)[C@@H]2C[C@H]2CNc2nc(OC[C@@]34CCCN3C[C@H](F)C4)nc3c(F)c(-c4ccc(F)c5sc(N)c(C#N)c45)c(Cl)cc23)n1 [Example 181, 2-amino-4-(6-chloro-8-fluoro-2-(((2R,7aS)-2-fluorotetrahydro-1H-pyrrolizin-7a(5H)-yl)methoxy)-4-((((trans)-2-(3-methyl-1H-pyrazole-1-carbonyl)cyclopropyl)methyl)amino)quinazolin-7-yl)-7-fluorobenzo[b]thiophene-3-carbonitrile] |
| > 10000 | 161 | 586 | 631 | > 10000 | 333 | N#Cc1c(N)sc2c(F)ccc(-c3c(Cl)cc4c(N5CCN(S(=O)(=O)n6nccn6)CC5)nc(OC[C@@]56CCCN5C[C@H](F)C6)nc4c3F)c12 [Example 229, 4-(4-(4-((2H-1,2,3-triazol-2-yl)sulfonyl)piperazin-1-yl)-6-chloro-8-fluoro-2-(((2R,7aS)-2-fluorotetrahydro-1H-pyrrolizin-7a(5H)-yl)methoxy)quinazolin-7-yl)-2-amino-7-fluorobenzo[b]thiophene-3-carbonitrile] |
| 19 | 8 | 3 | 3 | 80 | 125 | CC(=O)N(C)C(=O)CCCN(C)c1nc(OC[C@@]23CCCN2C[C@H](F)C3)nc2c(F)c(-c3ccc(F)c4sc(N)c(C#N)c34)c(Cl)cc12 [Example 259, N-acetyl-4-((7-(2-amino-3-cyano-7-fluorobenzo[b]thiophen-4-yl)-6-chloro-8-fluoro-2-(((2R,7aS)-2-fluorotetrahydro-1H-pyrrolizin-7a(5H)-yl)methoxy)quinazolin-4-yl)(methyl)amino)-N-methylbutanamide] |
| 113 | 142 | 16 | 43 | 20 | 264 | N#Cc1c(N)sc2c(F)ccc(-c3c(Cl)cc4c(N5CCC(C(=O)Oc6ccc(Cl)cc6)CC5)nc(OC[C@@]56CCCN5C[C@H](F)C6)nc4c3F)c12 [Example 301, 4-chlorophenyl 1-(7-(2-amino-3-cyano-7-fluorobenzo[b]thiophen-4-yl)-6-chloro-8-fluoro-2-(((2R,7aS)-2-fluorotetrahydro-1H-pyrrolizin-7a(5H)-yl)methoxy)quinazolin-4-yl)piperidine-4-carboxylate] |
| 17 | 15 | 18 | 6 | 69 | 70 | CC(=O)N(C)C(=O)[C@@H]1C[C@@H]2CN(c3nc(OC[C@@]45CCCN4C[C@H](F)C5)nc4c(F)c(-c5ccc(F)c6sc(N)c(C#N)c56)c(Cl)cc34)C[C@@H]2C1 [Example 237, (3aR,5R,6aS)-N-acetyl-2-((S)-7-(2-amino-3-cyano-7-fluorobenzo[b]thiophen-4-yl)-6-chloro-8-fluoro-2-(((2R,7aS)-2-fluorotetrahydro-1H-pyrrolizin-7a(5H)-yl)methoxy)quinazolin-4-yl)-N-methyloctahydrocyclopenta[c]pyrrole-5-carboxamide] |
| 46 | 93 | 19 | 13 | 185 | 522 | Cc1ccn(C(=O)C2CCCN(c3nc(OCC4(CN(C)C)CC4)nc4c(F)c(-c5ccc(F)c6sc(N)c(C#N)c56)c(Cl)cc34)CC2)n1 (stereo not drawn) [Example 227, 2-amino-4-(6-chloro-2-((1-((dimethylamino)methyl)cyclopropyl)methoxy)-8-fluoro-4-(4-(3-methyl-1H-pyrazole-1-carbonyl)azepan-1-yl)quinazolin-7-yl)-7-fluorobenzo[b]thiophene-3-carbonitrile] |
